Measurements: publication PMC6977461 (Chemical Science, 2019)
*1 amine or outer side, *2 acyl side, *3 side chain or, on linkers, in order; H or OH if unused. The star is where a group is joined. X1 = C[C@@H](CN*)NC(=O)[C@@H](N)Cc1c[nH]cn1; CO = O=C([*:1])[*:2]

Experiments:
INS-1 832/3 cells = experiment: insulin secretion in vitro in INS-1 832/3 cells; format: cell-based; details: 16 h stimulation at 11 mM glucose, n = 5, versus non-ureido parents
C57BL/6J mice = experiment: dose-response study in healthy mice, IPGTT 6 h after agonist; format: in vivo, mouse
Method: Mice were lightly fasted (4 hours) before IP administration of varying doses of each agonist or vehicle (100 µL saline). After a further 6 hours, blood glucose was measured (GlucoRx) from the tail followed by IP administration of 2 g/kg 20% glucose. Blood glucose was monitored at 20, 40 and 60 minute time- […]
performed on the area-under-curve for each set of data.
Study in db/db mice (15 days).
After the acclimation period of 5 days, male db/db mice 8 weeks old (Charles River laboratories) were randomized into groups (n=10) according to their body weight, HOMA-IR and HbA1C measured after an overnight fast and 8 non diabetic mice were excluded. Mice were chronically treated during 15 days via s.c. route (once daily) at around 8AM with the vehicle or with 100 µg kg-1 (25 nmol kg-1) of the oligomers. Formulation: 20 µg mL-1 in PBS 1×. On the 7th day of treatment, fed blood glucose was […]
On the 12th day of treatment, mice were fasted 6 hours and an OGTT (glucose 1 g kg-1 p.o.) was performed 6 hours (2 PM) after the dosing. Blood glucose was […]
On the 15th day of treatment, mice were fasted 6 hours and an ITT (insulin 2 U kg-1 i.p.) was performed 6 hours (2 PM) after the dosing. […]
samples were collected for measuring HbA1c just before the start of the treatments and at the end of […]
Fifteen mice (male C57BL/6J mice (Janvier Labs, France) 9 weeks old, 20-25 g) were treated with GLP-1 analogues via i.v. injections (2 mg kg-1) formulated at 1 mg mL-1 in PBS 1×. After different time points mice were sacrificed and blood sample were collected. The plasma was separated by centrifugation and the samples were frozen at -80°C before analysis. A volume of 400 µL of each sample of plasma was mixed with 1 ml of acetonitrile to precipitate the protein and extract the compound. The sample were then vortexed and centrifuged (15 000 × g, 5 min, 16 °C) to sediment the precipitated protein.
The supernatant was analysed by LC-MS/MS using a UHPLC coupled to LC-MS 8030 Shimadzu triple […]
Molecular dynamics simulation of GLP-1R in complex with ureidopeptide 3 […]
Human GLP-1R which shares […]

[1] = healthy C57BL/6J mice, 0.01 to 10 nmol kg-1 i.p., IPGTT 6 h after dose, 3-parameter fit of AUC, n = 8

“{X1-CO}-EGTFTSDLSKQLEEEAVRLFIEWLKNGGPSSGAPPSKKKKKK-NH2 [compound 14]” was tested, and the “insulin release in vitro” value (INS-1 832/3 cells) was “significantly increased insulin release”, the “improvement of ED50 versus parent peptide” value (C57BL/6J mice; 11 versus exenatide (9), 14 versus LixiL (13)) was “five-fold improvement” and the “ED50 (printed in Fig. 4)” value (C57BL/6J mice; [1]) was 0.47. The ED50 in vivo (C57BL/6J mice; [1]) was 0.46 nmol/kg.
